Counter-ions that a name gives are not always drawn.
Experiments:
[1] = system: PDE4; assay: Inhibition of PDE 4 activity (method of Bauer and Schwabe, adapted to microtitre plates); format: biochemical
Experimental: The activity test was carried out according to the method of Bauer and Schwabe, which was adapted to microtitre plates (Naunyn-Schmiederberg's Arch. Pharmacol. 311, 193-198, 1980). In this test, the PDE reaction is carried out in the first step. In a second step, the resultant 5′-nucleotide is cleaved to the uncharged nucleoside by a snake venom 5′-nucleotidase from Crotalus Atrox. In the third step, the nucleoside is separated from the remaining charged substrate on ion exchange columns. The columns are eluted directly into minivials using 2 ml of 30 mM ammonium formate (pH 6.0), to which a further 2 ml of scintillation fluid is added for counting.
The inhibitory values determined for the compounds according to the invention follow from the following table A, in which the numbers of the compounds correspond to the numbers of the examples.

COc1ccc(C2=NNC(=O)[C@H]3CC=CC[C@@H]23)c2c1OC(C)(C)C2 (relative stereo) showed a melting point of 242 °C.

With COc1ccc(C2=NN(C3CCCCCC3)C(=O)[C@H]3CC=CC[C@@H]23)c2c1OC(C)(C)C2 (relative stereo) [Compound 25, (cis)-4-(2,3-Dihydro-2,2-dimethyl-7-methoxybenzofuran-4-yl)-2-cycloheptyl-4a,5,8,8a-tetrahydro-2H-phthalazin-1-one] the “Inhibition of PDE4 activity [measured as -loglC50 (mol/l)]” value [1] was 9.01.

With COc1ccc(C2=NN(c3ccccc3)C(=O)[C@H]3CC=CC[C@@H]23)c2c1OC(C)(C)C2 (relative stereo) [Compound 27, (cis)-4-(2,3-Dihydro-2,2-dimethyl-7-methoxybenzofuran-4-yl)-2-phenyl-4a,5,8,8a-tetrahydro-2H-phthalazin-1-one] the “Inhibition of PDE4 activity [measured as -loglC50 (mol/l)]” value [1] was 8.74.

For COc1ccc(C2=NNC(=O)C3CC=CCC23)c2c1OC1(CCCC1)C2 (stereo not drawn) [Compound 1, (cis)-4-(2,3-Dihydro-7-methoxybenzofuran-2-spiro-1′-cyclopentan-4-yl)-4a,5,8,8a-tetrahydro-2H-phthalazin-1-one], the “Inhibition of PDE4 activity [measured as -loglC50 (mol/l)]” value [1] was 8.02.

With COc1ccc(C2=NN(C3CCCC3)C(=O)C3CC=CCC23)c2c1OC1(CCCC1)C2 (stereo not drawn) [Compound 5, (cis)-4-(2,3-Dihydro-7-methoxybenzofuran-2-spiro-1′-cyclopentane-4-yl)-2-cyclopentyl-4a,5,8,8a-tetrahydro-2H-phthalazin-1-one] the “Inhibition of PDE4 activity [measured as -loglC50 (mol/l)]” value [1] was 9.22.

With COc1ccc(C2=NN(C3CCCCCC3)C(=O)C3CC=CCC23)c2c1OC1(CCCC1)C2 (stereo not drawn) [Compound 6, (cis)-4-(2,3-Dihydro-7-methoxybenzofuran-2-spiro-1′-cyclopentan-4-yl)-2-cycloheptyl-4a,5,8,8a-tetrahydro-2H-phthalazin-1-one] the “Inhibition of PDE4 activity [measured as -loglC50 (mol/l)]” value [1] was 9.17.

For COc1ccc(C2=NN(Cc3ccccc3)C(=O)C3CC=CCC23)c2c1OC1(CCCC1)C2 (stereo not drawn) [Compound 7, (cis)-4-(2,3-Dihydro-7-methoxybenzofuran-2-spiro-1′-cyclopentan-4-yl)-2-benzyl-4a,5,8,8a-tetrahydro-2H-phthalazin-1-one], the “Inhibition of PDE4 activity [measured as -loglC50 (mol/l)]” value [1] was 8.93.

In the case of COc1ccc(C2=NN(c3ccccc3)C(=O)C3CC=CCC23)c2c1OC1(CCCC1)C2 (stereo not drawn) [Compound 8, (cis)-4-(2.3-Dihydro-7-methoxybenzofuran-2-spiro-1′-cyclopentan-4-yl)-2-phenyl-4a,5,8,8a-tetrahydro-2H-phthalazin-1-one], the “Inhibition of PDE4 activity [measured as -loglC50 (mol/l)]” value [1] is reported as 8.87.

With COc1ccc(C2=NNC(=O)C3CCCCC23)c2c1OC1(CCCC1)C2 [Compound 9, (4aS, 8aR)-4-(2,3-Dihydro-7-methoxybenzofuran-2-spiro-1′-cyclopentan-4-yl)-4a,5,6,7,8,8a-hexahydro-2H-phthalazin-1-one] the “Inhibition of PDE4 activity [measured as -loglC50 (mol/l)]” value [1] was 7.80.

In the case of COc1ccc(C2=NN(Cc3ccc(C(=O)O)cc3)C(=O)C3CCCCC23)c2c1OC1(CCCC1)C2 (stereo not drawn) [Compound 11, (cis)-4-(2,3-Dihydro-7-methoxybenzofuran-2-spiro-1′-cyclopentan-4-yl)-2-(4-carboxybenzyl)-4a,5,6,7,8,8a-hexahydro-2H-phthalazin-1-one], the “Inhibition of PDE4 activity [measured as -loglC50 (mol/l)]” value [1] is reported as 7.66.

For COc1ccc(C2=NN(Cc3ccncc3)C(=O)C3CCCCC23)c2c1OC1(CCCC1)C2 (stereo not drawn) [Compound 12, (cis)-4-(2,3-Dihydro-7-methoxybenzofuran-2-spiro-1′-cyclopentan-4-yl)-2-(4-pyridylmethyl)-4a,5,6,7,8,8a-hexahydro-2H-phthalazin-1-one-hydrochloride], the “Inhibition of PDE4 activity [measured as -loglC50 (mol/l)]” value [1] was 8.22.

In the case of COc1ccc(C2=NN(C3CCCCCC3)C(=O)C3CCCCC23)c2c1OC1(CCCC1)C2 (stereo not drawn) [Compound 13, (cis)-4-(2,3-Dihydro-7-methoxybenzofuran-2-spiro-1′-cyclopentan-4-yl)-2-cycloheptyl-4a,5,6,7,8,8a-hexahydro-2H-phthalazin-1-one], the “Inhibition of PDE4 activity [measured as -loglC50 (mol/l)]” value [1] is reported as 9.22.

With COc1ccc(C2=NN(Cc3ccccc3)C(=O)C3CCCCC23)c2c1OC1(CCCC1)C2 (stereo not drawn) [Compound 14, (cis)-4-(2,3-Dihydro-7-methoxybenzofuran-2-spiro-1′-cyclopentan-4-yl)-2-benzyl-4a,5,6,7,8,8a-hexahydro-2H-phthalazin-1-one] the “Inhibition of PDE4 activity [measured as -loglC50 (mol/l)]” value [1] was 8.62.

In the case of COc1ccc(C2=NN(CCO)C(=O)C3CC=CCC23)c2c1OC1(CCCC1)C2 (stereo not drawn) [Compound 17, (cis)-4-(2,3-Dihydro-7-methoxybenzofuran-2-spiro-1′-cyclopentan-4-yl-2-hydroxyethyl-4a,5,8,8a-tetrahydro-2H-phthalazin-1-one], the “Inhibition of PDE4 activity [measured as -loglC50 (mol/l)]” value [1] is reported as 8.36.

For COc1ccc(C2=NN(CCCCn3ccnc3)C(=O)C3CC=CCC23)c2c1OC1(CCCC1)C2 (stereo not drawn) [Compound 22, (cis)-4(2,3-Dihydro-7-methoxybenzofuran-2-spiro-1′-cylopentan-4-yl)-2-[4-(imidazol-1yl)-1-butyl]-4a,5,8,8a-tetrahydro-phthalazin-1-one], the “Inhibition of PDE4 activity [measured as -loglC50 (mol/l)]” value [1] was 8.82.

In the case of COc1ccc(C2=NN(c3ccc(C(=O)O)cc3)C(=O)C3CC=CCC23)c2c1OC1(CCCC1)C2 (stereo not drawn) [Compound 24, (cis)-4-(2,3-Dihydro-7-methoxybenzofuran-2-spiro-1′-cyclopentan-4-yl)-2-(p-carboxyphenyl)-4a,5,8,8a-tetrahydro-2H-phthalazin-1-one], the “Inhibition of PDE4 activity [measured as -loglC50 (mol/l)]” value [1] is reported as 9.38.

With COc1ccc(C2=NN(Cc3ccccc3)C(=O)C3CC=CCC23)c2c1OC(C)(C)C2 (stereo not drawn) [Compound 26, (cis)-4-2,3-Dihydro-2,2-dimethyl-7-methoxybenzofuran-4-yl)-2-benzyl-4a,5,8,8a-tetrahydro-2H-phthalazin-1-one] the “Inhibition of PDE4 activity [measured as -loglC50 (mol/l)]” value [1] was 8.72.

Source: patent publication US6380196B1, “Dihydrobenzofurans” (Byk Gulden Lomberg Chemische Fabrik GmbH, priority 1997, dated 2002)
